“And” between values parts separate entries of the source, which are not always exact repeats. Identical values can stand only once. Like-named read-outs stand apart in the source and are kept apart here.
Columns and labels:
[1] = system: D. immitis Mf, Yazoo-2013 strain (resistant); experiment: Cell attachment assay (canine PMN or PBMC attachment to Mf), Yazoo-2013 isolate; type: cell-based, Dirofilaria immitis
[2] = system: D. immitis Mf, Metairie-2014 strain (resistant); experiment: Cell attachment assay (canine PMN or PBMC attachment to Mf), Metairie-2014 isolate; type: cell-based, Dirofilaria immitis; details: for lowest drug concentration at which a statistically significant increase (p = <0.05) in cell attachment was observed compared to the no-drug control: 2-way ANOVA

| SMILES | Percentage (±SEM) of Mf with cells attached [1] | drug concentration causing a significant increase in cell attachment [1] | lowest drug concentration at which a statistically significant increase (p = <0.05) in cell attachment was observed compared to the no-drug control [1] | Percentage (±SEM) of Mf with cells attached [2] | drug concentration required for a significant increase in cell attachment [2] | increase in attachment of PBMCs at any concentration [2] | Percentage (±SEM) of Mf with cells attached ([1]; PBMC, 1 μM drug, Yazoo-2013 Mf) | lowest drug concentration at which a statistically significant increase (p = <0.05) in cell attachment was observed compared to the no-drug control ([1]; PBMC, 40 h, Yazoo-2013 Mf, 2-way ANOVA) | Percentage (±SEM) of Mf with cells attached ([1]; PMN, 1 μM drug, Yazoo-2013 Mf) | lowest drug concentration at which a statistically significant increase (p = <0.05) in cell attachment was observed compared to the no-drug control ([1]; PMN, 24 h, Yazoo-2013 Mf, 2-way ANOVA) | drug concentration causing a significant increase in cell attachment ([1]; PMNs and PBMCs, Yazoo-2013 Mf) | Percentage (±SEM) of Mf with cells attached ([2]; PBMC, 1 μM drug, Metairie-2014 Mf) | lowest drug concentration at which a statistically significant increase (p = <0.05) in cell attachment was observed compared to the no-drug control ([2]; PBMC, 40 h, Metairie-2014 Mf) | Percentage (±SEM) of Mf with cells attached ([2]; PMN, 1 μM drug, Metairie-2014 Mf) | lowest drug concentration at which a statistically significant increase (p = <0.05) in cell attachment was observed compared to the no-drug control ([2]; PMN, 24 h, Metairie-2014 Mf) |
| --- | --- | --- | --- | --- | --- | --- | --- | --- | --- | --- | --- | --- | --- | --- | --- |
| CC[C@H](C)[C@H]1O[C@]2(CC[C@@H]1C)C[C@@H]1C[C@@H](C/C=C(\C)[C@@H](O[C@H]3C[C@H](OC)[C@@H](O[C@H]4C[C@H](OC)[C@@H](O)[C@H](C)O4)[C@H](C)O3)[C@@H](C)/C=C/C=C3\CO[C@@H]4[C@H](O)C(C)=C[C@@H](C(=O)O1)[C@]34O)O2 [IVM, ivermectin] | 25 ± 5% and 18 ± 4% | 100 to 300 nM | 100 nM | 13% and 10% and 13 ± 3% and 10 ± 2% | ≥ 1 µM | no significant increase |  |  |  |  |  |  |  |  |  |
| CO/N=C1\C[C@]2(C[C@@H]3C[C@@H](C/C=C(\C)C[C@@H](C)/C=C/C=C4\CO[C@@H]5[C@H](O)C(C)=C[C@@H](C(=O)O3)[C@]45O)O2)O[C@H](/C(C)=C/C(C)C)[C@H]1C [MOX, moxidectin] |  |  |  |  |  |  | 19 ± 3% | 10 nM | 28 ± 5% | 3 nM | 3 to 10 nM | 49 ± 8% | 1 nM | 42 ± 6% | 10 nM |
